According to patent publication US20220259193A1, “KCNT1 INHIBITORS AND METHODS OF USE” (Praxis Precision Medicines, Inc., priority 2019, published 2022):

The compounds below were run against T1, KCNT1 (KNa1.1, Slack) (Homo sapiens, UniProt Q5JUK3) (assay: KCNT1 patch clamp assay (SyncroPatch 384PE automated patch clamp)). Details: tetracycline inducible HEK-TREX cell line; perforated patch; step from −80 mV to 0 mV; room temperature; read-out: KCNT1-WT IC50.
T1 construct: expressed in transfected cells; host or cells: HEK-TREX (tetracycline-inducible HEK cell line)
T1 sequence (Q5JUK3 1-1230): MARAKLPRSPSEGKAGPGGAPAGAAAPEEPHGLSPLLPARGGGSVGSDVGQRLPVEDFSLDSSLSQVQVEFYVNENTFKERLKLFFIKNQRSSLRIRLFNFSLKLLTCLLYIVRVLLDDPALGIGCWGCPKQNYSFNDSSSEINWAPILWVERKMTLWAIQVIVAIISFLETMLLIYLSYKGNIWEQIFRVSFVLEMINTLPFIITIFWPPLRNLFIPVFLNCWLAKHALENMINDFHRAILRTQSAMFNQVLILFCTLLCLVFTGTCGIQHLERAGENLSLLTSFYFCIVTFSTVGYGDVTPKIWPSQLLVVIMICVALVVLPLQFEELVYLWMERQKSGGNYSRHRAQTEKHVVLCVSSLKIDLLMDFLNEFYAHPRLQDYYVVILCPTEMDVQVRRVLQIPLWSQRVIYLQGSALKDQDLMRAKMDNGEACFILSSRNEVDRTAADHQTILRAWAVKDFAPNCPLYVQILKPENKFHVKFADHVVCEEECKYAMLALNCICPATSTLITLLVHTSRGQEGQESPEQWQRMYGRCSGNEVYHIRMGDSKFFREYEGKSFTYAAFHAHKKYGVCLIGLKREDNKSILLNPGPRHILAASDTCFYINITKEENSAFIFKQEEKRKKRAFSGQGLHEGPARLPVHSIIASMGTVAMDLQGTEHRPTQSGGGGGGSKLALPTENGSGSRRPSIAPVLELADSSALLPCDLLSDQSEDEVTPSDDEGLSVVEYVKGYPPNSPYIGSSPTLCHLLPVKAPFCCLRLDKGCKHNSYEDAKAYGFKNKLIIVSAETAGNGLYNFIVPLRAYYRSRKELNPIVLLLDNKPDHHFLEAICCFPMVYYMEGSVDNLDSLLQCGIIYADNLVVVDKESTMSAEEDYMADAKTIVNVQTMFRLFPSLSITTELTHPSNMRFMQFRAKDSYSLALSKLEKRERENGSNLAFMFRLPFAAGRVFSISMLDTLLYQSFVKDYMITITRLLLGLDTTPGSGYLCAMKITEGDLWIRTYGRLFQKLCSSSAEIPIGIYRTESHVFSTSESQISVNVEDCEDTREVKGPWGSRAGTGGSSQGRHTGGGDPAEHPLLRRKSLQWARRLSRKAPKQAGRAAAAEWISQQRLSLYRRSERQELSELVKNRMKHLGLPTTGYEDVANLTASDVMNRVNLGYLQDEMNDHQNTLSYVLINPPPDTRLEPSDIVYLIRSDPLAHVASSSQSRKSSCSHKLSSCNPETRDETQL
Format: cell-based
Method in brief: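 Tetracycline-inducible HEK-TREX cells; perforated-patch (10 μM escin) population recordings at room temperature, holding −80 mV with 100 ms step to 0 mV.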

**Q.** With `C[C@H](NC(=O)c1cc(C(F)F)nn1C)c1nc(-c2ccnc(C3CCCC3)c2)no1` [Compound 308, (S)—N-(1-(3-(2-cyclopentylpyridin-4-yl)-1,2,4-oxadiazol-5-yl)ethyl)-3-(difluoromethyl)-1-methyl-1H-pyrazole-5-carboxamide] as the compound, how does the IC50 read?
**A.** Its IC50 is at most 1000 nM.

**Q.** `Cn1nc(C(F)(F)F)cc1C(=O)N[C@H](CCS(C)(=O)=O)c1nc(-c2cccc(F)c2)no1` (single isomer, unassigned) [Compound 143] was tested. Which IC50 did it give?
**A.** The IC50 was at least 20000 nM.

**Q.** For `CC(=O)NC[C@H](NC(=O)c1cc(C(F)(F)F)nn1C)c1nc(-c2cccc(F)c2)no1` [Compound 134], which IC50 is on record?
**A.** The IC50 was at least 20000 nM.

**Q.** How did the IC50 turn out when `Cc1nn(C(C)C)cc1C(=O)N[C@@H](C)c1nc(-c2cc(F)cc(Cl)c2)no1` [Compound 91] was run?
**A.** The IC50 was at most 1000 nM.

**Q.** With `Cn1nc(C2CC2)cc1C(=O)NC(CO)c1nc(-c2cccc(F)c2)no1` (stereo not drawn) [Compound 54] as the compound, how does the IC50 read?
**A.** Its IC50 is at least 20000 nM.

**Q.** `Cc1cccc(-c2noc(C(C)NC(=O)c3cc(C)nn3C(C)C)n2)c1` (stereo not drawn) [Compound 22] was tested. Which IC50 did it give?
**A.** Its IC50 is at most 1000 nM.

**Q.** With `C[C@H](NC(=O)c1cc(C(F)(F)F)nn1C(F)F)c1nc(-c2cccc(Cl)c2)no1` (single isomer, unassigned) [Compound 83] as the compound, how does the IC50 read?
**A.** The IC50 was 1000 to 20000 nM.

**Q.** Which IC50 does the source give for `CC(C)OC(=O)N[C@@H](C)c1nc(-c2ccnc(C3CC3)c2)no1` [Compound 277] here?
**A.** Its IC50 is 1000 to 20000 nM.

**Q.** For `C[C@H](NC(=O)c1cc(C(F)(F)F)nn1C)c1nc(-c2ccnc(N3CC(F)(F)C3)c2)no1` [Compound 222, (S)—N-(1-(3-(2-(3,3-difluoroazetidin-1-yl)pyridin-4-yl)-1,2,4-oxadiazol-5-yl)ethyl)-1-methyl-3-(trifluoromethyl)-1H-pyrazole-5-carboxamide], which IC50 is on record?
**A.** Its IC50 is at most 1000 nM.

**Q.** How did the IC50 turn out when `C[C@H](NC(=O)c1ccnn1C1CC1)c1nc(-c2ccnc(C3CC3)c2)no1` [Compound 305, 2-cyclopropyl-N-[(1S)-1-[3-(2-cyclopropyl-4-pyridyl)-1,2,4-oxadiazol-5-yl]ethyl]pyrazole-3-carboxamide] was run?
**A.** Its IC50 is at most 1000 nM.

**Q.** For `CO[C@H](C)[C@@H](NC(=O)c1cc(C(F)(F)F)nn1C)c1nc(-c2cccc(F)c2)no1` [Compound 139], which IC50 is on record?
**A.** Its IC50 is at most 1000 nM.

**Q.** For `C[C@H](NC(=O)OC(C)(C)C)c1nc(-c2ccnc(OC3CC(F)(F)C3)c2)no1` [Compound 293, tert-butyl (S)-(1-(3-(2-(3,3-difluorocyclobutoxy)pyridin-4-yl)-1,2,4-oxadiazol-5-yl)ethyl)carbamate], which IC50 is on record?
**A.** Its IC50 is at least 20000 nM.
